Activity calls are given as the source filed them. The calls are words filed in the database; no cut-off is given here.
Experiments:
[1] = (§1) Inhibition of yeast recombinant FTase; set-up: species or system Saccharomyces cerevisiae
Saccharomyces cerevisiae = assay: as §1
[2] = Inhibition of yeast recombinant FTase by Lineweaver-Burke plot; set-up: species or system Saccharomyces cerevisiae
[3] = Inhibition of yeast recombinant FTase by non-competitive Lineweaver-Burke plot using farnesyl pyrophosphate substrate; set-up: species or system Saccharomyces cerevisiae

Compound	IC50 ([1]; read-out: IC50) [nM]	other results
CC(C)Sc1scc(-c2ccc(Cl)cc2)c1C#N		IC50 [1]: Not Active
CCOC(=O)c1c(-c2ccc(Cl)cc2)c(C#N)c(SC(C)C)n1C		Activity (Saccharomyces cerevisiae): inactive
CON(C)C(=O)c1sc(SC(C)C)c(C#N)c1-c1ccc(Cl)cc1		IC50 [1]: Not Active
CCOC(=O)c1sc(SC(C)C)nc1-c1ccc(Cl)cc1		Activity (Saccharomyces cerevisiae): inactive
CCOC(=O)c1oc(SC(C)C)c(C#N)c1-c1ccc(Cl)cc1		Activity (Saccharomyces cerevisiae): inactive
N#Cc1c(N2CCOCC2)sc(C(=O)O)c1-c1ccc(Cl)cc1	28000	
CCOC(=O)c1sc(SC(C)C)c(C#N)c1-c1ccc(Cl)cc1	3800	
CC(=O)OCc1sc(SC(C)C)c(C#N)c1-c1ccc(Cl)cc1	45000	
CC(C)Sc1c(C#N)c(-c2ccc(Cl)cc2)c(C(=O)O)n1C	47000	
COC(=O)[C@@H](CCSC)NC(=O)c1sc(SC(C)C)c(C#N)c1-c1ccc(Cl)cc1	5700	
CC(C)Sc1sc(CO)c(-c2ccc(Cl)cc2)c1C#N		IC50 [1]: Not Active
CSc1sc(C(=O)NC2CC2)c(-c2ccc(Cl)cc2)c1C#N	22000	
CC(C)Sc1nc(-c2ccc(Cl)cc2)c(C(=O)O)s1	51000	

The remaining compounds from weak to strong by IC50 ([1]; read-out: IC50), led by results:

IC50 ([1]; read-out: IC50) [nM]	Compound	other results
2000	CC(C)Sc1oc(C(=O)O)c(-c2ccc(Cl)cc2)c1C#N	
1450	N#Cc1c(SC2CCCCC2)sc(C(=O)O)c1-c1ccc(Cl)cc1	
1240	CCCCSc1sc(C(=O)O)c(-c2ccc(Cl)cc2)c1C#N	
1100	CC(C)Sc1sc(C(N)=O)c(-c2ccc(Cl)cc2)c1C#N	
890	CC(C)CSc1sc(C(=O)O)c(-c2ccc(Cl)cc2)c1C#N	
790	CC(=O)c1sc(SC(C)C)c(C#N)c1-c1ccc(Cl)cc1	
610	CSc1sc(C(=O)O)c(-c2ccc(Cl)cc2)c1C#N	
345	CCC(C)Sc1sc(C(=O)O)c(-c2ccc(Cl)cc2)c1C#N (stereo unspecified)	
325	CCSc1sc(C(=O)O)c(-c2ccc(Cl)cc2)c1C#N	
110	CC(C)Sc1sc(C(=O)O)c(-c2ccc(Cl)cc2)c1C#N	Ki [2]: 105 nM; Ki [3]: 110 nM
7.5	CSCC[C@@H](NC(=O)c1sc(SC(C)C)c(C#N)c1-c1ccc(Cl)cc1)C(=O)O	

From ChEMBL document CHEMBL1155240, “Discovery of a new class of protein farnesyltransferase inhibitors in the arylthiophene series” (J Med Chem, 2009)
